Key:
[1] = target: hCB2 (human CB2) receptors (Homo sapiens (Human), UniProt P34972); test: GTPγ[35S] functional assay, CHO membrane extracts hCB2; type: biochemical
Procedure: Functional activity was evaluated using GTPγ[^35S] assay in CHO membrane extracts expressing recombinant hCB1 (human CB1) receptors or hCB2 (human CB2) receptors. The assay relies on the binding of GTPγ[^35S], a radiolabeled nonhydrolyzable GTP analogue, to the G protein upon binding of an agonist of the G-protein-coupled receptor. In this system, agonists stimulate GTPγ[^35S] binding whereas neutral antagonist have no effect and inverse agonists decrease GTPγ[^35S] basal binding.
The compound of Example 3 was solubilized in 100% DMSO at a concentration of 10 mM within 4 hours of the first testing session (master solution). A predilution for the dose response curve was performed in 100% DMSO and then diluted 100 fold in assay buffer at a concentration 2 fold higher than the concentration to be tested. […] For GTPγS membranes were mixed with GDP diluted in assay buffer to give 30 μM solution (volume:volume) and incubated for at least […] on ice. In parallel, GTPγ[^35S] (GE Healthcare, Catalogue number SJ1308) were mixed with the beads (PVT-WGA (GE Healthcare, RPNQ001)), diluted in assay buffer at 50 mg/ml (0.5 mg/10 μl) (volume:volume) just before starting the reaction. […] Then the plates were centrifuged for 10 min at 2000 rpm and counted for 1 min/well with a PerkinElmer TopCount reader. […]

naïve rats = test: Thermal paw withdrawal latency in naïve rats; type: in vivo, rat
Procedure: To determine sensitivity to noxious heat, rats were placed in plexiglass enclosures on a transparent glass surface maintained at 30° C. and allowed to acclimate for 30 min. A thermal testing apparatus, consisting of a heat-emitting projector lamp and an electronic timer, was used. The device was activated after the lamp is placed directly beneath the planter surface of the hindpaw. The paw withdrawal latency in response to the radiant heat was recorded by a digital timer. A cutoff of 30 s was used to prevent potential tissue damage. After the baseline was measured, three groups of naïve rats (n=10) received 1.0, 3.0, or 10 mg/kg of the compound of Example 3 i.p. Response latencies were determined twice for each rat before drug injection and at 5, 10, 15, 30, 45, 60, 90 and 120 min after IP injection. The percent maximal possible effect (% MPE) was calculated as ([postdrug latency−baseline latency]/[cutoff time (30 s)−baseline latency])×100.

nerve-ligation model = test: Assessment of mechanical allodynia in rats, L5/6 spinal-nerve ligation, von Frey (IP or IT); type: in vivo, rat
Procedure: All experiments were performed on male Sprague-Dawley rats (200-250 g). Rats were housed individually in plastic cages with soft bedding at room temperature and maintained on a 12-hour light-dark cycle with free access to food and water.
Neuropathic pain was induced following the methods of Kim and Chung. Kim S H, Chung J M. An experimental model for peripheral neuropathy produced by segmental spinal nerve ligation in the rat. Pain 1992; 50:355-63. Rats were anesthetized and placed prone under a microsurgical apparatus. A midline incision was made on the back, and the right paraspinal muscles were separated from the spinous processes at the L4-S2 levels. The L6 transverse process was carefully removed, and the L4/5 spinal nerves were identified. The L5 nerve was tightly ligated with a 6-0 silk suture. The right L6 spinal nerve was then located just caudal and medial to the sacroiliac junction and tightly ligated with a silk suture.
Two weeks later after spinal nerve ligation, Intrathecal catheters (PE-10 tubing) was inserted into the rats while they were anesthetized with isoflurane, as described by Yaksh and Rudy. Yaksh T L, Rudy T A. Chronic catheterization of the spinal subarachnoid space. Physiology & Behavior 1976; 17:1031-6. A midline incision was made on the back of the neck. The muscle was freed at the attachment to the skull exposing the cisternal membrane. The membrane was opened with a stab blade and an 8.5 cm polyethylene (PE-10) catheter was then inserted through the cisternal opening, and passed carefully and caudally into the intrathecal space at the L1-L3 spinal segments. The end of the catheter was tunneled through the subcutaneous space over the frontal bones, flushed with 10 μl saline, and then plugged with a short length of wire. Animal testing was performed 5-7 days after intrathecal catheter placement.
To assess mechanical allodynia, the mechanical paw withdrawal threshold was measured with a series of von Frey hairs (range 0.4-15 g). Rats were placed in elevated Perspex enclosures (28 cm×15 cm×18 cm) with wire mesh bases and given 15-20 min to acclimatize to the testing environment. Rats will be allowed to acclimatize for 30 min in a clear plastic cage with a wire mesh bottom. The calibrated von Frey filament fibers were applied to the hindpaw briefly for 6 seconds to determine the paw withdrawal threshold before and after drug injection (intraperitoneally or intrathecally). A series of von Frey filaments with exponentially incremental stiffness (0.4, 0.7, 1.2, 2.0, 3.6, 5.5, 8.5 and 15 g) were used to measure the 50% threshold for hindpaw withdrawal in awake, unrestrained rats. Chaplan S R, Bach F W, Pogrel J W, Chung J M, Yaksh T L. Quantitative assessment of tactile allodynia in the rat paw. Journal of Neuroscience Methods 1994; 53:55-63. Brisk paw withdrawal from the pressure of a filament gently bent against the plantar paw was defined as a positive response, and absence of withdrawal within 6 s as a negative response. Filaments were touched to the hindpaw in sequential ascending or descending order until the threshold of response is crossed (allowing about 10 s between each increment of the von Frey filaments). Each time the threshold is crossed, the direction of stimulus presentation was reversed and the procedure will be resumed. Four responses were collected after the first threshold detection, and the 50% withdrawal thresholds were interpolated. In cases where response thresholds fell outside the range of detection, 15.00 and 0.25 g were, respectively, assigned for continuous negative or positive responses to the limit of stimuli.
The compound of Example 3 was prepared in dimethyl sulfoxide (DMSO).

CC1(Cc2ccccc2)COc2cc(C(=O)N3CCCCC3)ccc21 (centres unmarked) [Example 3, 3-benzyl-3-methyl-2,3-dihydrobenzofuran-6-carboxylic acid-piperidine amide]
Emax [1]: 88%
EC50 ([1]; read-out: Agonist EC50 (mean ± s.e. mean) GTPγ[35S] functional assays hCB2): 128 nM
nociceptive effect of a thermal stimulus applied to hind paws (naïve rats; 1 mg/kg or 3 mg/kg i.p.): did not block
nociceptive effect of a thermal stimulus applied to hind paws (naïve rats; 10 mg/kg i.p.): short-lasting antinociceptive effect
mechanical paw withdrawal threshold maintained (nerve-ligation model; IP 30 mg/kg): 15 g
time of peak effect following IP administration (nerve-ligation model; IP 30 mg/kg): ≤ 5 min
effect on mechanical paw withdrawal threshold (nerve-ligation model; IP 30 mg/kg in 0.5 ml): increase in mechanical paw withdrawal threshold
duration of high threshold (nerve-ligation model; IP 30 mg/kg, 2-h observation period): > 2 h
behavioral abnormalities or side effects (nerve-ligation model; IT administration): No behavioral abnormalities or side effects were noted
effect on mechanical paw withdrawal threshold (nerve-ligation model; IT administration): increase in mechanical paw withdrawal threshold
duration of increase in mechanical paw withdrawal threshold (nerve-ligation model; IT administration, 90-min observation period): ≥ 90 min
